Measured values from ChEMBL document CHEMBL1201862, “PubChem BioAssay data set” (2004).
Values joined by “and” are separate entries in the source; they are usually repeats but may differ in a detail not shown here. Equal values may be shown once.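 Where inhibition never reached the appropriate level, the endpoint shown equals the highest concentration tested. Otherwise, values were interpolated linearly from a five-concentration, 48-hour dose response in 96-well plates. Abbreviation: GI50, concentration required for 50% inhibition of growth.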 Active and inactive are the calls of the source. Cut-off read from the data, not from the text of the source: active = GI50 up to about 1.1 µM and inactive = higher.

What was measured:
Assay in all cases: inhibition of tumour cell growth, NCI panel, 48 h
[1] = tested on: DU-145
[2] = tested on: NCI-H522
[3] = tested on: NCI-H226
[4] = tested on: SW-620
[5] = tested on: SK-OV-3
[6] = tested on: RXF 393
[7] = tested on: UACC-62
[8] = tested on: NCI-H23
[9] = tested on: BT-549
[10] = tested on: UO-31
[11] = tested on: SK-MEL-2
[12] = tested on: HOP-62
[13] = tested on: SF-539
[14] = tested on: HCT-15
[15] = tested on: OVCAR-5
[16] = tested on: SR
[17] = tested on: Hs-578T
[18] = tested on: K562
[19] = tested on: UACC-257
[20] = tested on: MCF7
[21] = tested on: T47D
[22] = tested on: MOLT-4
[23] = tested on: LOX IMVI
[24] = tested on: CCRF-CEM
[25] = tested on: TK-10
[26] = tested on: Malme-3M
[27] = tested on: HL-60
[28] = tested on: OVCAR-4
[29] = tested on: 786-0
[30] = tested on: HCC 2998
[31] = tested on: NCI/ADR-RES
[32] = tested on: A498
[33] = tested on: NCI-H460
[34] = tested on: RPMI-8226
[35] = tested on: OVCAR-3
[36] = tested on: MDA-MB-231
[37] = tested on: MDA-N
[38] = tested on: COLO 205
[39] = tested on: SK-MEL-5
[40] = tested on: HOP-92
[41] = tested on: SNB-19
[42] = tested on: KM12
[43] = tested on: SK-MEL-28
[44] = tested on: M14
[45] = tested on: CAKI-1
[46] = tested on: MDA-MB-435
[47] = tested on: OVCAR-8
[48] = tested on: ACHN
[49] = tested on: HCT-116
[50] = tested on: PC-3
[51] = tested on: SF-295
[52] = tested on: EKVX
[53] = tested on: IGROV-1
[54] = tested on: SN12C
[55] = tested on: SNB-75
[56] = tested on: A549
[57] = tested on: SF-268
[58] = tested on: U-251
[59] = tested on: HT-29

In the case of `c1ccc(P(CCP(CCP(c2ccccc2)c2ccccc2)c2ccccc2)CCP(c2ccccc2)c2ccccc2)cc1` (configuration not stated), the GI50 [1] is reported as > 9.16 µM (inactive), the GI50 [2] is reported as 2.69 µM (inactive) and the GI50 [3] is reported as > 5.22 µM (inactive). For the same molecule, the GI50 [4] was 5.05 µM (inactive), the GI50 [5] was > 10 µM (inactive) and the GI50 [6] was > 5.6 µM (inactive). For the same molecule, the GI50 [7] was 6.55 µM (inactive), the GI50 [8] was > 5.38 µM (inactive) and the GI50 [9] was > 10 µM (inactive). The GI50 [10] was > 10 µM (inactive) and > 6.82 µM (inactive), the GI50 [11] was 9.44 µM (inactive) and the GI50 [12] was > 10 µM (inactive). For the same molecule, the GI50 [13] was > 6.25 µM (inactive), the GI50 [14] was 9.77 µM and the GI50 [15] was > 5.45 µM (inactive). For the same molecule, the GI50 [16] was 1.1 µM (active), the GI50 [17] was 3.85 µM (inactive) and the GI50 [18] was 1.28 µM (inactive). The GI50 [19] was > 10 µM (inactive), the GI50 [20] was 1.67 µM (inactive) and the GI50 [21] was 2.12 µM (inactive). For the same molecule, the GI50 [22] was 1.41 µM (inactive), the GI50 [23] was 1.51 µM (inactive) and the GI50 [24] was 1.23 µM (inactive). For the same molecule, the GI50 [25] was > 10 µM (inactive), the GI50 [26] was > 10 µM (inactive) and the GI50 [27] was 0.63 µM (active). The GI50 [28] was 7.33 µM (inactive), the GI50 [29] was 1.82 µM (inactive) and the GI50 [30] was 2.06 µM (inactive). For the same molecule, the GI50 [31] was > 10 µM (inactive) and > 5.58 µM (inactive), the GI50 [32] was > 10 µM (inactive) and > 8.65 µM (inactive) and the GI50 [33] was 1.72 µM (inactive). The GI50 [34] was 1.68 µM (inactive).
`CCc1ccc2nccc(NCCCN(C)C)c2c1[N+](=O)[O-]` was tested, and the GI50 [35] was 41.1 µM (inactive), the GI50 [36] was 56.1 µM (inactive) and the GI50 [1] was > 100 µM (inactive). The GI50 [37] was 64.7 µM (inactive), the GI50 [38] was 30.7 µM (inactive) and the GI50 [2] was 74.6 µM (inactive). The GI50 [3] was > 100 µM (inactive), the GI50 [4] was > 100 µM (inactive) and the GI50 [5] was > 100 µM (inactive). For the same molecule, the GI50 [6] was 71.8 µM (inactive), the GI50 [39] was 44.3 µM (inactive) and the GI50 [7] was > 100 µM (inactive). For the same molecule, the GI50 [8] was > 100 µM (inactive), the GI50 [40] was > 100 µM (inactive) and the GI50 [10] was 86.3 µM (inactive). For the same molecule, the GI50 [41] was > 100 µM (inactive), the GI50 [42] was > 100 µM (inactive) and the GI50 [43] was > 100 µM (inactive). The GI50 [44] was 28.8 µM (inactive), the GI50 [11] was > 100 µM (inactive) and the GI50 [12] was > 100 µM (inactive). The GI50 [13] was > 10 µM (inactive), the GI50 [14] was > 10 µM and the GI50 [15] was 33.5 µM (inactive). For the same molecule, the GI50 [16] was > 100 µM (inactive), the GI50 [45] was 46.6 µM (inactive) and the GI50 [46] was 62.2 µM (inactive). The GI50 [47] was > 100 µM (inactive), the GI50 [48] was > 100 µM (inactive) and the GI50 [17] was 30.9 µM (inactive). For the same molecule, the GI50 [18] was 42.8 µM (inactive), the GI50 [19] was 32.3 µM (inactive) and the GI50 [20] was 72.9 µM (inactive). The GI50 [49] was 41.2 µM (inactive), the GI50 [50] was 70 µM (inactive) and the GI50 [21] was > 100 µM (inactive). The GI50 [22] was > 100 µM (inactive), the GI50 [23] was 62.7 µM (inactive) and the GI50 [24] was > 100 µM (inactive). For the same molecule, the GI50 [51] was 75.7 µM (inactive), the GI50 [25] was > 100 µM (inactive) and the GI50 [26] was > 100 µM (inactive). The GI50 [52] was > 100 µM (inactive), the GI50 [27] was > 100 µM (inactive) and the GI50 [28] was 90.2 µM (inactive). For the same molecule, the GI50 [53] was > 100 µM (inactive), the GI50 [54] was 60.4 µM (inactive) and the GI50 [55] was 50 µM (inactive). The GI50 [29] was > 100 µM (inactive), the GI50 [56] was > 100 µM (inactive) and the GI50 [57] was > 100 µM (inactive). For the same molecule, the GI50 [30] was > 100 µM (inactive), the GI50 [31] was > 100 µM (inactive) and the GI50 [32] was > 100 µM (inactive). For the same molecule, the GI50 [33] was > 100 µM (inactive), the GI50 [58] was > 100 µM (inactive) and the GI50 [34] was > 100 µM (inactive). The GI50 [59] was 33.4 µM (inactive).
